Results taken from the supplement of paper PMC10307832.

Key:
Test in all cases: relative viability (nuclei count vs DMSO), 5 days (fraction); higher = more cells survive
Vorinostat + Dasatinib = compound: O=C(CCCCCCC(=O)Nc1ccccc1)NO [Vorinostat] + Cc1nc(Nc2ncc(C(=O)Nc3c(C)cccc3Cl)s2)cc(N2CCN(CCO)CC2)n1 [Dasatinib] (partner 0.075 µM)
In short: (§1)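 A single step with final 0.05% Triton X-100, 1% formaldehyde and 1 ug/ml Hoechst fixed the cells and stained nuclei 5 days after treatment. Lung cancer cell lines in 1536-well plates had been treated by pin tool the day after seeding with one drug alone or a fixed anchor-drug dose plus five library-drug doses (not always all listed) in √10 steps, and nuclei were counted on 4× images. Relative viability is the ratio of nuclei in treated wells to nuclei in vehicle wells, taken as the median of duplicate plates.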

Vorinostat + Lapatinib = compound: O=C(CCCCCCC(=O)Nc1ccccc1)NO [Vorinostat] + CS(=O)(=O)CCNCc1ccc(-c2ccc3ncnc(Nc4ccc(OCc5cccc(F)c5)c(Cl)c4)c3c2)o1 [Lapatinib] (partner 2 µM)
In short: as §1

Vorinostat + Decitabine = compound: O=C(CCCCCCC(=O)Nc1ccccc1)NO [Vorinostat] + Nc1ncn([C@H]2C[C@H](O)[C@@H](CO)O2)c(=O)n1 [Decitabine] (partner 2 µM)
In short: as §1

Vorinostat + Olaparib = compound: O=C(CCCCCCC(=O)Nc1ccccc1)NO [Vorinostat] + O=C(c1cc(Cc2n[nH]c(=O)c3ccccc23)ccc1F)N1CCN(C(=O)C2CC2)CC1 [Olaparib] (partner 8 µM)
In short: as §1

Vorinostat + Alpelisib = compound: O=C(CCCCCCC(=O)Nc1ccccc1)NO [Vorinostat] + Cc1nc(NC(=O)N2CCC[C@H]2C(N)=O)sc1-c1ccnc(C(C)(C)C(F)(F)F)c1 [Alpelisib] (partner 2 µM)
In short: as §1

Row | Cell Line | relative viability (Vorinostat + Dasatinib; first compound 0.253 µM) | relative viability (Vorinostat + Dasatinib; first compound 0.8 µM) | relative viability (Vorinostat + Dasatinib; first compound 2.53 µM) | relative viability (Vorinostat + Dasatinib; first compound 8 µM) | relative viability (Vorinostat + Lapatinib; first compound 0.253 µM) | relative viability (Vorinostat + Lapatinib; first compound 0.8 µM) | relative viability (Vorinostat + Lapatinib; first compound 2.53 µM) | relative viability (Vorinostat + Lapatinib; first compound 8 µM) | relative viability (Vorinostat + Decitabine; first compound 0.253 µM) | relative viability (Vorinostat + Decitabine; first compound 0.8 µM) | relative viability (Vorinostat + Decitabine; first compound 2.53 µM) | relative viability (Vorinostat + Decitabine; first compound 8 µM) | relative viability (Vorinostat + Olaparib; first compound 0.253 µM) | relative viability (Vorinostat + Olaparib; first compound 0.8 µM) | relative viability (Vorinostat + Olaparib; first compound 2.53 µM) | relative viability (Vorinostat + Olaparib; first compound 8 µM) | relative viability (Vorinostat + Alpelisib; first compound 0.253 µM) | relative viability (Vorinostat + Alpelisib; first compound 0.8 µM) | relative viability (Vorinostat + Alpelisib; first compound 2.53 µM) | relative viability (Vorinostat + Alpelisib; first compound 8 µM)
1 | PC-14 | 0.344 | 0.239 | 0.0451 | 0.026 | 0.36 | 0.251 | 0.135 | 0.0961 | 0.227 | 0.19 | 0.0705 | 0.06 | 0.351 | 0.197 | 0.064 | 0.0386 | 1 | 0.903 | 0.263 | 0.0674
2 | RERF-LC-KJ | 0.817 | 0.543 | 0.212 | 0.24 | 0.938 | 0.781 | 0.733 | 0.227 | 0.79 | 0.614 | 0.184 | 0.254 | 0.826 | 0.715 | 0.228 | 0.266 | 0.862 | 0.898 | 0.457 | 0.234
3 | SK-LU-1 | 0.192 | 0.208 | 0.133 | 0.0924 | 1.05 | 0.738 | 0.449 | 0.16 | 0.655 | 0.669 | 0.494 | 0.196 | 0.417 | 0.399 | 0.323 | 0.14 | 1.14 | 0.721 | 0.488 | 0.178
4 | SK-MES-1 | 0.566 | 0.657 | 0.197 | 0.148 | 0.504 | 0.438 | 0.433 | 0.187 | 0.362 | 0.364 | 0.212 | 0.163 | 0.84 | 0.774 | 0.327 | 0.181 | 0.948 | 0.904 | 0.437 | 0.144
5 | SW 1573 | 0.593 | 0.789 | 0.112 | 0.0513 | 1.17 | 1.07 | 0.824 | 0.133 | 0.514 | 0.355 | 0.14 | 0.0457 | 0.745 | 0.399 | 0.212 | 0.0539 | 1.03 | 0.901 | 0.587 | 0.147
6 | UMC-11 | 0.423 | 0.258 | 0.121 | 0.0971 | 1.05 | 0.238 | 0.137 | 0.0786 | 0.613 | 0.402 | 0.179 | 0.134 | 0.374 | 0.235 | 0.0709 | 0.064 | 1.02 | 0.852 | 0.221 | 0.0659
